Measured values taken from patent publication US20140371244A1, “METHOD FOR TREATING PROSTATE CANCER BY USE OF PHARMACEUTICAL COMPOSITION CONTAINING A3 ADENOSINE RECEPTOR AGONIST” (priority 2009, published 2014).

Experiments:
[1] = test system: human colorectal cancer HCT 116 cells; assay: SRB assay, growth of HCT 116 cells; assay type: cell-based; conditions: 72 hours
Method: In order to compare the inhibitory effect of thio-Cl-IB-MECA of the present invention on the inhibition of human colorectal cancer HCT 116 cells with the effects of other A3 adenosine receptor agonists, IB-MECA and Cl-IB-MECA, a sulforhodamine B (SRB) assay was performed.
Specifically, 10 μL of a solution of thio-Cl-IB-MECA in 10% dimethylsulfoxide (DMSO) was loaded in each well of a 96-well plate in triplicate at concentrations of 100, 50, 25 and 12.5 μM, thus making a test plate. Cells were diluted to a density of 5×10^4 cells/ml with 10% FBS-containing RPMI 1640 medium supplemented with antibiotics-antimycotics, and 190 μL of the cell suspension was added to each well so as to reach a total volume of 200 μL and was cultured in a 5% CO2 incubator at 37° C. for 3 days. At the same time, 190 μL of the same cell suspension was loaded into each of 16 wells or more of a fresh 96-well plate containing no sample (thio-Cl-IB-MECA) and was cultured in a 5% CO2 incubator at 37° C. for 30 minutes, thereby determining reference date. After the culture, 50 μL of 50% trichloroacetic acid (TCA) was added to each well, and the cells were fixed by culture at 4° C. for 1 hour. Then, the well plate was washed five times with tap water and dried. 100 μL of a 1% acetic acid solution containing […] sulforhodamine B (SRB) was added to each well to stain the cells, and the well plate was allowed to stand at room temperature for 1 hour. After the well plate has been washed five times with 1% acetic acid and sufficiently dried, 200 μL of 100 mM Tris-base was added to each well, and the bound staining liquid was dissolved and sufficiently shaken in a shaker. Then, the absorbance at 515 nm was measured using an ELISA microplate reader. Based on the measured absorbance, the cell viability of the test group relative to the control group was calculated using equation 2 above. Based on the viability at each concentration, the IC50 value of the test sample was calculated using TableCurve program.
In the cases of IB-MECA or Cl-IB-MECA, the viability of cancer cells was examined in the same manner as the case of thio-Cl-IB-MECA.

[2] = test system: human colorectal cancer HCT 116 cells; assay: Anticancer activity in nude mice transplanted with HCT 116 cells; assay type: in vivo, nude mice (Balb/c-nu/nu mice)
Method: HCT 116 cells were prepared at a concentration of 2×10^6 cells/200 μl (RPMI) and administered subcutaneously into the right frank of 6-week-old female nude mice (Balb/c-nu/nu mice). The tumor size was measured with calipers, and the tumor size reached about 100 mm^3, 20 mice having substantially the same tumor size were divided into a control group and three sample-treated groups. The three sample-treated group were administered orally with IB-MECA at doses of 0.02, 0.2 and 2 mg/kg, respectively, for 21 days. In the control group and the sample-treated groups, the bodyweight was measured once every week, and the tumor size was measured at intervals of 3-4 days. The tumor volume was measured using equation 3 above. In the equation, a represents the longer diameter of the tumor, b represents the shorter diameter of the tumor, and c represents the height of the tumor.
Anticancer activity was measured by an animal test in the same manner as Example 20, except that 6-week-old female nude mice were administered with Cl-IB-MECA in place of IB-MECA as a sample.
Anticancer activity was measured by an animal test in the same manner as Example 20, except that 6-week-old female nude mice were administered with thio-Cl-IB-MECA in place of IB-MECA as a sample.

ICR white mice = assay: Animal toxicity test, single oral dose; assay type: in vivo; conditions: mouse, in vivo, po
Method: In order to examine the toxicities of thio-Cl-IB-MECA and thio-IB-MECA, each of the compounds was administered orally to ICR white mice (n=10, 25 g) at a dose of 1500 mg/kg weight, and the behavioral change and state of the mice were observed.

[3] = test system: prostate cancer cell line PC-3; assay: Anticancer activity in PC-3 tumor-transplanted nude mice; assay type: in vivo; conditions: 2 mg/kg orally every day for 35 days
Method: Based on the anticancer activity of thio-Cl-IB-MECA against prostate cancer cells, proven by the in vitro test, the anticancer activity of thio-Cl-IB-MECA was measured by an animal test. The prostate cancer cell line PC-3 was transplanted subcutaneously into nude mice, and when the tumor size reached 150-200 mm^3 after 8 days, the drug thio-Cl-IB-MECA (0.02, 0.2 and 2 mg/kg), thio-IB-MECA (2 mg/kg) or IB-MECA (2 mg/kg) was administered orally every day for 35 days. The tumor size was measured at intervals of 3-5 days. The tumor volume was measured using the following equation 3.
Tumor volume=abc×π/6 [Equation 3]
wherein a represents the longer diameter of the tumor, b represents the shorter diameter of the tumor, and c represents the height of the tumor.

SMILES | growth of HCT 116 cells ([1]; 100, 50, 25 and 12.5 μM) | IC50 ([1]; SRB) [µM] | inhibition rate of tumor growth ([2]; 0.02 mg/kg orally for 21 days) [%] | inhibition rate of tumor growth ([2]; 0.2 mg/kg orally for 21 days) [%] | inhibition rate of tumor growth ([2]; 2 mg/kg orally for 21 days) [%] | side effects (such as a change in bodyweight) during the test period ([2]; 0.02, 0.2 and 2 mg/kg orally for 21 days) | maximum tolerance dose (MTD) (ICR white mice) | survival and side effects up to 7 days after administration (ICR white mice; 1500 mg/kg) | tumor production inhibitory activity relative to the control group [3]
CNC(=O)[C@H]1O[C@@H](n2cnc3c(NCc4cccc(I)c4)nc(Cl)nc32)[C@H](O)[C@@H]1O [Cl-IB-MECA] | concentration-dependently inhibited the growth | 19.3 | 18.2 | 43.8 | 67.3 | survived healthfully without particular side effects | – | – | –
CNC(=O)[C@H]1S[C@@H](n2cnc3c(NCc4cccc(I)c4)ncnc32)[C@H](O)[C@@H]1O [thio-IB-MECA, N^6-(3-iodobenzyl)-4′-thioadenosine-5′-N-methyluronamide] | – | – | – | – | – | – | more than 1500 mg/kg | survived healthfully without particular side effects | about 53.6%
